Measurements reported in ChEMBL document CHEMBL1201862, “PubChem BioAssay data set” (2004).
Calls of active or inactive are those of the source.

Tests used:
[1] = biological target: T1, Eukaryotic translation initiation factor 2-alpha kinase 3 (Homo sapiens, UniProt Q9NZJ5); assay: Dose response cell-based high-throughput screening assay to measure PERK inhibition. [Related pubchem assays: 1416 ]; assay type: functional
[2] = biological target: T1, Eukaryotic translation initiation factor 2-alpha kinase 3; assay: Counterscreen assay for PERK inhibitors: Dose response cell-based high throughput screening assay to measure inhibition of PERK at 6 hours. [Related pubchem assays: 1522, 1416 ]; assay type: functional
[3] = inhibitors of SNCA 5'UTR-driven reporter translation, confirmation, H4 neuroglioma cells, luminescence (AID 1988); assay type: functional, cell-based
[4] = inhibitors of SNCA 5'UTR-driven translation, confirmation, luminescence, H4 neuroglioblastoma cells, dose confirmation (AID 2454); assay type: functional, cell-based;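 note: H4 neuroglioblastoma cells carrying an alpha-synuclein 5'UTR luciferase reporter; potency for inhibition of the luciferase signal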
[5] = cytotoxicity in HEK-293T cells, dose response, cytotoxicity control for TCR NF-kB inhibitor project, luminescence, T-cell screen hits (AID 489026); assay type: functional, cell-based;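 note: cells exposed to compound about 14 hours before the viability readout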
[6] = inhibitors of firefly luciferase expression or activity, dose response, H4 neuroglioma cells, luminescence (AID 1990); assay type: functional, cell-based
cells = assay type: functional, cell-based
[7] = luciferase reporter signal reduction – luminescence, H4-C neuroglioblastoma cells, dose response (AID 2458); assay type: functional, cell-based;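 note: H4 neuroglioblastoma cells stably carrying a luciferase reporter gene fusion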
[8] = biological target: T2, Female germline-specific tumor suppressor gld-1 (Caenorhabditis elegans, UniProt Q17339); assay: inhibitors of GLD-1 binding to TGE RNA, dose response, biochemical, fluorescence polarization, C. elegans (AID 2802);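 note: fluorescence polarization of labeled TGE RNA bound by purified gld-1 protein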
T2 sequence (Q17339 whole entry): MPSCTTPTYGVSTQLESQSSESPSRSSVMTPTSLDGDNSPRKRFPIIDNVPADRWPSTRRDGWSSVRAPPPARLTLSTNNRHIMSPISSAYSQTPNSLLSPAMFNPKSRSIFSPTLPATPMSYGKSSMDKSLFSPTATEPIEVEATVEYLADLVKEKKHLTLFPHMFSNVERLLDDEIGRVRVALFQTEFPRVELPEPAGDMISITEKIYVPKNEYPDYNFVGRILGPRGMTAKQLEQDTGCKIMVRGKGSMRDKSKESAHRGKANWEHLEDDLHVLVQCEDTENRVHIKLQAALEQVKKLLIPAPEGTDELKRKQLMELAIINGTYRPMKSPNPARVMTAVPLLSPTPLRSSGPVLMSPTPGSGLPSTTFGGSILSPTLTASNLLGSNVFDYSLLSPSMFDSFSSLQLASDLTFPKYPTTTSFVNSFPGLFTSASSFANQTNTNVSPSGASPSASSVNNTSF

[9] = biological target: T3, Polyadenylate-binding protein 1 (Homo sapiens, UniProt P11940); assay: PABP1 MLLE–PAM2 interaction inhibitors, dose response, miRNA deadenylation inhibitor project, biochemical, fluorescence polarization, Cy5-PAM2 peptide, secondary (AID 602260); assay type: functional; settings: read-out: IC50_Mean
[10] = biological target: T3, Polyadenylate-binding protein 1; assay: PABP1 MLLE–PAM2 binding inhibitor potency, dose response, biochemical, fluorescence polarization, FITC-PAM2 peptide (AID 602259); assay type: functional; settings: read-out: IC50_Mean
[11] = biological target: T4, RNA-binding protein pos-1 (Caenorhabditis elegans, UniProt G5EF15); assay: inhibitors of POS-1/mex-3 RNA binding, dose response, biochemical, fluorescence polarization (AID 1964);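 note: purified POS-1 fused to maltose binding protein made in E. coli; potency of compounds blocking POS-1 binding to fluorescent RNA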
T4 sequence (G5EF15 whole entry): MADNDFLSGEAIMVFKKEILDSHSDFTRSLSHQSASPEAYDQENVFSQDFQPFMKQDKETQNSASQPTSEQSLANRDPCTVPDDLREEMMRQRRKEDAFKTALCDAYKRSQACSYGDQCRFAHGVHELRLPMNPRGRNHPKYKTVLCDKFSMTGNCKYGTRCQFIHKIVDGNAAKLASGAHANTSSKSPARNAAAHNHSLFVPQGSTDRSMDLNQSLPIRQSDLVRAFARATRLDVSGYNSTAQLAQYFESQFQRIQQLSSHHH

Protein Rev = biological target: T5, Protein Rev (Human immunodeficiency virus type 1 group M subtype B (isolate HXB2)(HIV-1), UniProt P04618); assay: inhibitors of Rev binding to RRE RNA, dose response, biochemical, fluorescence polarization, HIV-1 (AID 434976); parameters: species or system Human immunodeficiency virus 1
T5 sequence (P04618 whole entry): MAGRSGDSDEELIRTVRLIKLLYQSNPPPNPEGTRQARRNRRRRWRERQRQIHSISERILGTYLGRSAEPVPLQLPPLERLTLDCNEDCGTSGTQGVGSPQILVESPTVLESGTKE

[12] = biological target: T6, Zinc finger protein mex-5 (Caenorhabditis elegans, UniProt Q9XUB2); assay: MEX-5/TCR-2 RNA interaction inhibitors, dose response, biochemical, C. elegans, fluorescence polarization (AID 1960)
T6 sequence (Q9XUB2 whole entry): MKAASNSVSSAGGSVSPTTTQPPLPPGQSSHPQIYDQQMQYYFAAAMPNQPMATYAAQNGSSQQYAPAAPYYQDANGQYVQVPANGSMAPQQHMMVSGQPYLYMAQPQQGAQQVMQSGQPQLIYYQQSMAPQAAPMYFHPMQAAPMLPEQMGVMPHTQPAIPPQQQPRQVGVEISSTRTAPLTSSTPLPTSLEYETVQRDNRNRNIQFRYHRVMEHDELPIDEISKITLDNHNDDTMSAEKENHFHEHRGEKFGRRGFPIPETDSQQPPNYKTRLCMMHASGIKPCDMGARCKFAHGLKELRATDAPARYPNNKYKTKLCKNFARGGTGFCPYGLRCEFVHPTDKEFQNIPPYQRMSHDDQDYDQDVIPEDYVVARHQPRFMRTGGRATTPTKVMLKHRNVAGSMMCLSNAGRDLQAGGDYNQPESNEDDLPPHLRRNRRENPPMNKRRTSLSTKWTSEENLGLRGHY

[13] = biological target: T7, Heat shock 70 kDa protein 1A (Homo sapiens, UniProt P0DMV8); assay: Hsp70 inhibitors, probe displacement, primary screen, biochemical, fluorescence polarization (AID 583)
[14] = biological target: T7, Heat shock 70 kDa protein 1A; assay: Hsp70 inhibitors, biochemical, TR-FRET (AID 786)
[15] = HepG2 cell cytotoxicity, dose response, cytotoxicity control, ATP luminescence, cherry-pick, set 6 (AID 1053125); assay type: functional, cell-based
[16] = biological target: T8, Alkaline phosphatase, tissue-nonspecific isozyme (Homo sapiens, UniProt P05186)
T8 sequence (P05186 whole entry): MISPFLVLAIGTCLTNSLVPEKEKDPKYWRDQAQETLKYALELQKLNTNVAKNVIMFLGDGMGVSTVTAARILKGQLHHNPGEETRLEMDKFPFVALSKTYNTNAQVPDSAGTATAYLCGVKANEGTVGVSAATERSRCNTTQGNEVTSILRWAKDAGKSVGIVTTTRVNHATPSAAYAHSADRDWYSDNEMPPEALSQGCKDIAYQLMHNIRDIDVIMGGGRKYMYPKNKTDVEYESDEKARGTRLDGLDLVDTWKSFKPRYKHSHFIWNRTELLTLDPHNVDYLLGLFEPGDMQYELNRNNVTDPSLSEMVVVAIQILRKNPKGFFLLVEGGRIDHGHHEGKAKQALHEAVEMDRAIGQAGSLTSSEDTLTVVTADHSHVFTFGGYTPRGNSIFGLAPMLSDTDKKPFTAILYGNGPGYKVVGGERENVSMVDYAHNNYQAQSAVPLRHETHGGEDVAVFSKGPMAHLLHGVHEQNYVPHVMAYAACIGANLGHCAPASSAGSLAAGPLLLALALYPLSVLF

[17] = growth suppression of PTEN-null colon cells, dose response, cell-based, HCT116 PTEN knockout (AID 1047); assay type: functional;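 note: HCT116 colon tumor cells with PTEN knocked out; cells exposed to compound for 60 hours before readout; potency for loss of cell viability measured by luminescence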
INS1 = assay: beta cell apoptosis inhibitors, cytokine rescue, dose response, luminescence, retest (AID 449756); assay type: functional, cell-based; settings: Rattus norvegicus;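 note: cell death triggered by IL-1 beta plus TNF-alpha plus IFN-gamma mixture; protective hits raise ATP signal compared with cytokine alone wells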
[18] = biological target: G-protein coupled receptor 35 (Homo sapiens, UniProt Q9HC97); assay: GPR35 antagonists blocking zaprinast-driven arrestin recruitment, primary screen, imaging, U2OS, beta-arrestin-GFP, zaprinast agonist (AID 2058); assay type: functional;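 note: antagonist potency meaning inhibition of agonist-induced arrestin redistribution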
[19] = inhibitors of intracellular T. cruzi replication, confirmation, NIH3T3 host cells, beta-gal luminescence (AID 2044); assay type: functional, cell-based;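 note: intracellular parasites grown in NIH/3T3 mouse fibroblasts as host cells; luminescent beta-galactosidase reporter signal from transgenic T. cruzi replicating inside host cells; inhibitors lower the luminescence signal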
[20] = growth suppression of beta-catenin-knockout colon cells, dose response, cell-based, HCT116, human colon tumor (AID 1045); assay type: functional;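 note: HCT116 colon tumor cells with beta catenin knocked out; cells exposed to compound for 60 hours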
[21] = biological target: NACHT, LRR and PYD domains-containing protein 3 (Homo sapiens, UniProt Q96P20); assay: NALP3 inhibitors in yeast, dose response, luminescent (AID 488799); assay type: functional
Sequence of NACHT, LRR and PYD domains-containing protein 3 (Q96P20 whole entry, the tested form may be a part): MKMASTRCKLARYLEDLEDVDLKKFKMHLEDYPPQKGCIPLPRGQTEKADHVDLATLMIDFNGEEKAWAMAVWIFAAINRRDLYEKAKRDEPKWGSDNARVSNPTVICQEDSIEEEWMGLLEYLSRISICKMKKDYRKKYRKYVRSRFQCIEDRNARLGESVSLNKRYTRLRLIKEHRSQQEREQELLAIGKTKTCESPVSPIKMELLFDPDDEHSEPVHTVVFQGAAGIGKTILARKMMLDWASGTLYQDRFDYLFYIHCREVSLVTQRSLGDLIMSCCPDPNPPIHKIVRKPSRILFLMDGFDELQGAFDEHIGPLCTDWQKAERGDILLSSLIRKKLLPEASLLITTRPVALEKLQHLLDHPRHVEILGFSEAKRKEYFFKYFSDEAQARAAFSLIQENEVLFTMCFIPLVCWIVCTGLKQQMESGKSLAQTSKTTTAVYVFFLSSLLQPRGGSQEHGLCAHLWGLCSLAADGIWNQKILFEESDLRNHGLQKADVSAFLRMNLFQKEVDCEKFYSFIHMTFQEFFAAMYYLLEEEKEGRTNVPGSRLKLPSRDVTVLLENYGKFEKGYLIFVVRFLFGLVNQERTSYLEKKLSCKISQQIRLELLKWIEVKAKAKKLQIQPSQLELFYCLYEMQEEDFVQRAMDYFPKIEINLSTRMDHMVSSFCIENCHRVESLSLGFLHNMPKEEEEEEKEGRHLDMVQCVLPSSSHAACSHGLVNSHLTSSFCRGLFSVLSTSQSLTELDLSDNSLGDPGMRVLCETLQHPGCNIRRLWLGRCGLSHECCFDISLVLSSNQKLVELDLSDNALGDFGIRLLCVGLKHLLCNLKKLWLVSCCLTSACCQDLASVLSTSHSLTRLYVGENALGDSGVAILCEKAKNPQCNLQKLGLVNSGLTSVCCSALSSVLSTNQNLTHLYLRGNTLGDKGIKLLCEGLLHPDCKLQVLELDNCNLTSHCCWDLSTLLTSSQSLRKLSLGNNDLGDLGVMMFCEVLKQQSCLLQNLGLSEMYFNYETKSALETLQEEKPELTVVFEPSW

T1 sequence (Q9NZJ5 whole entry): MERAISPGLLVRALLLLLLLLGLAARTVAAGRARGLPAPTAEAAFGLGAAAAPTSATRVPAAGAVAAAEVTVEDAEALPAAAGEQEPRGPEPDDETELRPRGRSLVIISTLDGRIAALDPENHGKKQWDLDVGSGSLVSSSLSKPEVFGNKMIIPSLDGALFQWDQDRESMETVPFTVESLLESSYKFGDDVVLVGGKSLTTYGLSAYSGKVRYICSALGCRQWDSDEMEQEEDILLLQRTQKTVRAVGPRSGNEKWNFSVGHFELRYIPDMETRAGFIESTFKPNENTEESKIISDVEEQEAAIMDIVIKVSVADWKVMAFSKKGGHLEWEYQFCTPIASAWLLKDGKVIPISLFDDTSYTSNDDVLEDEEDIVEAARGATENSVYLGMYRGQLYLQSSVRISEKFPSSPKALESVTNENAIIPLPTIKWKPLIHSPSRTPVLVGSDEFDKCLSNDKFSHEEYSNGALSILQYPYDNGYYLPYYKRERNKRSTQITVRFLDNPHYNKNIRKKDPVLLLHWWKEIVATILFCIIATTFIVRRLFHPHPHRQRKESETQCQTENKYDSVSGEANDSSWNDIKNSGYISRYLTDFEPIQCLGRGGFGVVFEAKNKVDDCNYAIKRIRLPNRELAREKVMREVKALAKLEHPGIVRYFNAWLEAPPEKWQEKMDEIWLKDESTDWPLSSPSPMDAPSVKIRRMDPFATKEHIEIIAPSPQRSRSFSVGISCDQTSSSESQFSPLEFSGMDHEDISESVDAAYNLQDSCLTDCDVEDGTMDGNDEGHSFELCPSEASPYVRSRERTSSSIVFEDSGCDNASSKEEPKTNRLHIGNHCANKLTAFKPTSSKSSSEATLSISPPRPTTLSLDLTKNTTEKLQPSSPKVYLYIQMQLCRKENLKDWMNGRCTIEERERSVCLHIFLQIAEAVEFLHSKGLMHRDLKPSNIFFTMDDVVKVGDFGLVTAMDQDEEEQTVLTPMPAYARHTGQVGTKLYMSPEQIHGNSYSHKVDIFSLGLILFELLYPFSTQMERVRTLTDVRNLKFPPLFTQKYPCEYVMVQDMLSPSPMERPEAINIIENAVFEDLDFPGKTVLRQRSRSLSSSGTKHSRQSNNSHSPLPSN
T3 sequence (P11940 whole entry): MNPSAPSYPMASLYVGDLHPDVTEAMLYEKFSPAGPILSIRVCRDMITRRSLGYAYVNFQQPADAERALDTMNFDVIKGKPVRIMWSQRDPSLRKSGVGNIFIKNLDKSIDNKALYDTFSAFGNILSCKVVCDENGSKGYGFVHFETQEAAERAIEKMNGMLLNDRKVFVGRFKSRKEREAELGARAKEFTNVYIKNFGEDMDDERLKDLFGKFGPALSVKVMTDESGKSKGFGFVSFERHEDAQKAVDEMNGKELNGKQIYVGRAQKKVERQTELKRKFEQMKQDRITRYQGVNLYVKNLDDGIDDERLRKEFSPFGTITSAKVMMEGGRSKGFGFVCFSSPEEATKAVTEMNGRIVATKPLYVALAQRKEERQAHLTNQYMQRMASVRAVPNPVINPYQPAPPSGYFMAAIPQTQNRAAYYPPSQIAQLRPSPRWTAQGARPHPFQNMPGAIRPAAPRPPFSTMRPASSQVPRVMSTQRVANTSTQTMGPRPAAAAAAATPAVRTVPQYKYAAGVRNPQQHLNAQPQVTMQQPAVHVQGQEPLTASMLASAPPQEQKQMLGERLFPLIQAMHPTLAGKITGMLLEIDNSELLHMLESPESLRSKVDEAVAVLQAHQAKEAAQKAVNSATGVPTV
T7 sequence (P0DMV8 whole entry): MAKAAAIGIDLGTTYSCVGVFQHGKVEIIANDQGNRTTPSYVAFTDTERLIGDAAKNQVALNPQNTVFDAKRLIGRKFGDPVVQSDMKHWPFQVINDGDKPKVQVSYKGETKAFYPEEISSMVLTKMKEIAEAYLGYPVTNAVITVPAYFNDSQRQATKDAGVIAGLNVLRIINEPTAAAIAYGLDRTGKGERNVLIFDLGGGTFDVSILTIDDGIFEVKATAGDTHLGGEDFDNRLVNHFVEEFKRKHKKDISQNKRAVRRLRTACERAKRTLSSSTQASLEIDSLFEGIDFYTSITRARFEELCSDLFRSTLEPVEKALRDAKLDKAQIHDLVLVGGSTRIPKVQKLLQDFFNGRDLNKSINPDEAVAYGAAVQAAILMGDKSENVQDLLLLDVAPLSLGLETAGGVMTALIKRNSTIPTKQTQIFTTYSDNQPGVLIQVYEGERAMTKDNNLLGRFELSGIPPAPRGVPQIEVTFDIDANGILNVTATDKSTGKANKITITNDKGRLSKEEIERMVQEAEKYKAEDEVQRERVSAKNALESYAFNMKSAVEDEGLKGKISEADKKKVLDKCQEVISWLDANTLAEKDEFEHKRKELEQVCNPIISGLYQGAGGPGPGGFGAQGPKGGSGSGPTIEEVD
Sequence of G-protein coupled receptor 35 (Q9HC97 whole entry): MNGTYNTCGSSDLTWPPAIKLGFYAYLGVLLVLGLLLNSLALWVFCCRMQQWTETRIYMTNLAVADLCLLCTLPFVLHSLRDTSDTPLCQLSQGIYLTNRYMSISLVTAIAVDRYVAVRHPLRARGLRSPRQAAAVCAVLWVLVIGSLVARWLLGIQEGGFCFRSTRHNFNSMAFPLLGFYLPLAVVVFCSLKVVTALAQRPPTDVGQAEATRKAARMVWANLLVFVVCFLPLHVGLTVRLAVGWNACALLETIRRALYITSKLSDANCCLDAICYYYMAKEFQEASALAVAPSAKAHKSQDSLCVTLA

## O/N=C/c1ccc2cccc(O)c2n1
[1]
  EC50: > 55.7 µM (not active)
[2]
  EC50: > 55.7 µM (not active)

## CCOC(=O)C(C)Oc1cccc2c(=O)n(CC(=O)NCc3ccc(F)cc3)ccc12 (centres undefined)
[3]
  EC50: < 100 nM (active)
[4]
  EC50: > 12 µM (inconclusive)
[5]
  IC50: > 80 µM (inactive)
[6]
  EC50: 300 nM (active)
cells
  EC50: 1.67 µM (active)
[7]
  EC50: > 12 µM (not active)

## Nc1cccc2c1C(=O)N(c1ccccc1)C2=O
[8]
  IC50: 2.9 µM (active)
[9]
  IC50: > 66 µM (inactive)
[10]
  IC50: 24 µM (inactive)
[11]
  EC50: 17 µM (active)
Protein Rev
  IC50: 7.86 µM (active)
[12]
  EC50: 10.5 µM (active)
[13]
  IC50: 12.4 µM (active)
[14]
  IC50: > 100 µM (not active)
[15]
  AC50: > 52 µM (inactive)

## CCn1c(/C=N/Nc2ccc(C(=O)O)cc2)nc2ccccc21
[16]
  EC50: 88.3 µM (not active)

## COc1ccc(/N=C2\S/C(=C\c3ccc(N4CCOCC4)o3)C(=O)N2CCc2c[nH]c3ccccc23)cc1
[17]
  EC50: 10 µM (active)
INS1
  AC50: 7.09 µM (active)
[18]
  IC50: 1.49 µM (active)
[19]
  EC50: 335 nM (active)
[20]
  EC50: 7.54 µM (active)

## Cc1cccc(C(=O)ONC(=N)Cc2cccc3ccccc23)c1
[21]
  IC50: 1.62 µM (active)
